Columns and labels:
[1] = test system: larvae of the mustard beetle (Phaedon cochleariae); assay: Phaedon cochleariae spray test (PHAECO); assay type: in vivo; conditions: Chinese cabbage leaf discs, after 7 days
Procedure: H. Phaedon cochleariae-spray Test (PHAECO)
Solvents: 78.0 parts by weight of acetone
(§1) • 1.5 parts by weight of dimethylformamide Emulsifier: alkylaryl polyglycol ether
(§2) To produce a suitable preparation of active compound, 1 part by weight of active compound is dissolved using the stated parts by weight of solvent and made up with water comprising an emulsifier concentration of 1000 ppm until the desired concentration is reached. To produce further test concentrations, the preparation is diluted with emulsifier-containing water.
After 7 days, the efficacy in % is determined. 100% means that all of the beetle larvae have been killed; 0% means that none of the beetle larvae have been killed.

[2] = logP determination by HPLC on a reversed-phase column (C18), EEC Directive 79/831 Annex V.A8; assay type: physicochemical
Procedure: (§3) ^a) Note regarding the determination of the logP values and mass detection: The determination of the given logP values was carried out in accordance with EEC Directive 79/831 Annex V.A8 by HPLC (High Performance Liquid Chromatography) on a reversed-phase column (C18). Agilent 1100 LC system; 50*4.6 Zorbax Eclipse Plus C18 1.8 micron; mobile phase A: acetonitrile (0.1% formic acid); mobile phase B: water (0.09% formic acid); linear gradient from 10% acetonitrile to 95% acetonitrile in 4.25 min, then 95% acetonitrile for a further 1.25 min; oven temperature 55° C.; flow rate: 2.0 ml/min. Mass detection is carried out via an Agilend MSD system.
as §3, with “^*)” for “^a)”

[3] = test system: greenhouse red spider mite (Tetranychus urticae); assay: Tetranychus urticae spray test, OP-resistant (TETRUR); assay type: in vivo; conditions: bean leaf discs, after 6 days
Procedure: J. Tetranychus urticae-spray Test, OP-Resistant (TETRUR)
(§4) Solvent: 78.0 parts by weight of acetone
as §1, §2
Discs of bean leaves (Phaseolus vulgaris) which are infested by all stages of the greenhouse red spider mite (Tetranychus urticae) are sprayed with an active compound preparation of the desired concentration.
After 6 days, the efficacy in % is determined. 100% means that all of the spider mites have been killed; 0% means that none of the spider mites have been killed.

[4] = test system: caterpillars of the armyworm (Spodoptera frugiperda); assay: Spodoptera frugiperda spray test (SPODFR); assay type: in vivo; conditions: maize leaf discs, after 7 days
Procedure: I. Spodoptera frugiperda-spray Test (SPODFR)
as §4, §1, §2
Leaf discs of maize (Zea mays) are sprayed with an active compound preparation of the desired concentration and, after drying, populated with caterpillars of the armyworm (Spodoptera frugiperda).
After 7 days, the efficacy in % is determined. 100% means that all of the caterpillars have been killed; 0% means that none of the caterpillars have been killed.

[5] = test system: adult cat fleas (Ctenocephalides felis); assay: Ctenocephalides felis in vitro contact test with adult cat fleas (T1); conditions: after 48 h
Procedure: T1. Ctenocephalides felis—in vitro Contact Tests with Adult Cat Fleas
For the coating of the test tubes, initially 9 mg of active compound are dissolved in 1 ml of acetone p.a. and then diluted with acetone p.a. to the desired concentration. By turning and rocking on an orbital shaker (2 h of rocking rotation at 30 rpm), 250 μl of the solution are distributed homogeneously on the internal walls and the floor of a 25 ml test tube. At 900 ppm active compound solution and 44.7 cm^2 internal surface, an area dose of 5 μg/cm^2 is achieved for homogeneous distribution.
After evaporation of the solvent, the tubes are populated with 5-10 adult cat fleas (Ctenocephalides felis), sealed with a perforated plastic lid and incubated in a horizontal position at room temperature and ambient humidity. After 48 h, the efficacy is determined. To this end, the test tubes are stood upright and the fleas are knocked to the floor of the tube. Fleas which remain motionless on the floor or move in an uncoordinated manner are considered to be dead or moribund.
An efficacy of 100% means that all fleas were dead or moribund. 0% efficacy means that none of the fleas had been damaged.

[6] = HPLC on reversed-phase column (C18), acetonitrile/water with formic acid, EEC Directive 79/831 Annex V.A8
[7] = HPLC, reversed-phase C18, acetonitrile (0.1% formic acid)/water (0.09% formic acid) gradient

SMILES | logP [2, 6] | efficacy in % ([1]; application rate 100 g/ha) | efficacy in % ([3]; application rate 100 g/ha) | also measured
CON=Cc1c(C(F)(F)F)nn(C)c1-n1cc(-c2ccc(Cl)c(C(=O)NC3CC3)c2)cn1 (mixture of isomers) [Ic-51] | 3.15 |  |  | efficacy in % ([1]; application rate 500 g/ha): 100%
Cn1nc(C(F)(F)C(F)(F)F)c(C(F)(F)F)c1-n1cnc(-c2ccc(Cl)c(C(=O)NCc3ccccc3)c2)c1 [Ib-1, N-Benzyl-2-chloro-5-{1-[1-methyl-3-(pentafluoroethyl)-4-(trifluoromethyl)-1H-pyrazol-5-yl]-1H-imidazol-4-yl}benzamide] |  | 83% |  | chromatographic logP [2]: 4
Cc1c(-c2ccc(Cl)c(C(=O)NC3CC3)c2)c(C(F)(F)F)nn1-c1c(C(F)(F)F)c(C(F)(F)C(F)(F)F)nn1C [Ic-5] | 4.60 | 83% |  | 
Cc1nn(-c2c(C(F)(F)F)c(C(F)(F)C(F)(F)F)nn2C)c(C)c1-c1ccc(Cl)c(C(=O)NC2CC2)c1 [Ic-9] | 4.02 |  | 90% | 
Cn1nc(C(F)(F)F)c(C#N)c1-n1cc(-c2ccc(Cl)c(C(=O)NC3CC3)c2)cn1 [Ic-30] | 2.97 | 100% |  | 
Cn1nc(C(F)(F)F)c(C=O)c1-n1cc(-c2ccc(Cl)c(C(=O)NC3CC3)c2)cn1 [Ic-52] | 2.67 |  |  | efficacy in % ([1]; application rate 500 g/ha): 100%
Cn1nc(C(F)(F)F)c(CO)c1-n1cc(-c2ccc(Cl)c(C(=O)NC3CC3)c2)cn1 [Ic-69] | 2.15 |  |  | efficacy in % ([3]; application rate 500 g/ha): 90%; efficacy in % ([1]; application rate 500 g/ha): 83%
Cn1nc(C(F)(F)F)c(CO)c1-n1cc(-c2ccc(Cl)c(C(=O)NC3(C#N)CC3)c2)cn1 [Ic-104] | 2.13 | 100% | 100% | 
Cn1nc(C(F)(F)C(F)(F)F)c(C(F)(F)F)c1-n1cc(-c2cccc(C(=O)NC3(C#N)CC3)n2)cn1 [Ic-105] |  |  |  | efficacy in % ([3]; application rate 500 g/ha): 90%; efficacy in % ([1]; application rate 500 g/ha): 100%; efficacy in % ([4]; application rate 500 g/ha): 100%
Cn1nc(C(F)(F)C(F)(F)F)c(C(F)(F)F)c1-n1cc(-c2ccc(Cl)c(C(=O)NC3(C#N)CC3)c2F)cn1 [Ic-107] |  |  |  | efficacy (dead or moribund fleas) ([5]; application rate 1 μg/cm^2): 100%; efficacy (dead or moribund fleas) ([5]; application rate 5 μg/cm^2): 100%; efficacy in % ([3]; application rate 500 g/ha): 100%; efficacy in % ([1]; application rate 500 g/ha): 100%; efficacy in % ([4]; application rate 500 g/ha): 100%
CSC1CCC1NC(=O)c1cc(-c2cnn(-c3c(C(F)(F)F)c(C(F)(F)C(F)(F)F)nn3C)c2)ccc1Cl (centres unmarked) [Ic-119] | 4.52 | 100% | 100% | efficacy in % ([4]; application rate 100 g/ha): 83%
Cn1nc(C(F)(F)C(F)(F)F)c(C(F)(F)F)c1-n1cc(-c2ccc(Cl)c(C(=O)NC3CCC3C[S+](C)[O-])c2)cn1 (centres unmarked) [Ic-123] | 3.09 |  | 100% | 
Cn1nc(C(F)(F)C(F)(F)F)c(C(F)(F)F)c1-n1cc(-c2ccc(Cl)c(C(=O)NC3CCC3S(C)(=O)=O)c2)cn1 (centres unmarked) [Ic-124] | 3.47 | 100% | 100% | efficacy in % ([4]; application rate 100 g/ha): 100%
Cn1nc(C(F)(F)C(F)(F)F)c(C(F)(F)F)c1-n1cc(-c2ccc(Cl)c(C(=O)NC3CCC3[S+](C)[O-])c2)cn1 (centres unmarked) [Ic-125] | 3.17 | 100% | 100% | efficacy in % ([4]; application rate 100 g/ha): 83%
Cn1nc(C(F)(F)C(F)(F)F)c(C(F)(F)F)c1-n1cc(-c2ccc(Cl)c(C(=O)NC3(C#N)CSC3)c2)cn1 [Ic-128] | 4.38 | 100% | 100% | efficacy in % ([4]; application rate 100 g/ha): 100%
Cc1ccc(-c2cnn(-c3c(C(F)(F)F)c(C(F)(F)C(F)(F)F)nn3C)c2)cc1C(=O)Nc1ccc(F)cc1 [Ic-131] | 4.57 | 100% | 100% | efficacy in % ([4]; application rate 100 g/ha): 100%
Cn1nc(C(F)(F)F)c(C(F)(F)F)c1-n1cc(-c2ccc(Cl)c(C(=O)Nc3ccccc3)c2)cn1 [Ic-135] | 4.1 | 83% | 100% | efficacy in % ([4]; application rate 100 g/ha): 100%

SMILES | logP [2, 6] | efficacy in % ([1]; application rate 100 g/ha) | efficacy in % ([3]; application rate 100 g/ha) | also measured
Cn1nc(C(F)(F)F)c(C(F)(F)F)c1-n1cc(-c2ccc(Cl)c(C(=O)NCCF)c2)cn1 [Ic-168] | 3.24 | 100% | 100% | efficacy in % ([4]; application rate 100 g/ha): 83%
Cn1nc(C(F)(F)F)c(C(F)(F)F)c1-n1cc(-c2ccc(Cl)c(C(=O)NCC(F)(F)F)c2)cn1 [Ic-169] | 3.71 | 100% | 100% | efficacy in % ([4]; application rate 100 g/ha): 100%
Cn1nc(C(F)(F)F)c(C(F)(F)F)c1-n1cc(-c2ccc(Cl)c(C(=O)NCC(F)F)c2)cn1 [Ic-170] | 3.43 | 100% | 100% | efficacy in % ([4]; application rate 100 g/ha): 100%
Cn1nc(C(F)(F)C(F)(F)F)c(C(F)(F)F)c1-n1cc(-c2cc(C(=O)NC3CC3)cc3c2OC(F)(F)O3)cn1 [Ic-171] |  |  |  | efficacy in % ([3]; application rate 500 g/ha): 90%; efficacy in % ([1]; application rate 500 g/ha): 100%; efficacy in % ([4]; application rate 500 g/ha): 100%
CCOC1(NC(=O)c2cc(-c3cnn(-c4c(C(F)(F)F)c(C(F)(F)C(F)(F)F)nn4C)c3)ccc2Cl)CC1 [Ic-176] | 4.08 |  |  | efficacy in % ([3]; application rate 500 g/ha): 100%; efficacy in % ([1]; application rate 500 g/ha): 100%; efficacy in % ([4]; application rate 500 g/ha): 100%
Cn1nc(C(F)(F)C(F)(F)F)c(C(F)(F)F)c1-n1cc(-c2ccc([S+](C)[O-])c(C(=O)NC3CC3)c2)cn1 (centres unmarked) [Ic-189] | 3.19 | 100% | 100% | 
Cn1nc(C(F)(F)C(F)(F)F)c(C(F)(F)F)c1-n1cc(-c2ccc(Cl)c(C(=O)NC3(C#N)CC3)c2)c(N)n1 [Ic-191] | 3.3 | 100% |  | 
Cn1nc(C(F)(F)C(F)(F)F)c(C(F)(F)F)c1-n1cc(-c2ccc(Cl)c(C(=O)NC3CC3)c2)c(N)n1 [Ic-192] | 3.35 | 100% |  | 
CCN(C(=O)c1cc(-c2cnn(-c3c(C(F)(F)F)c(C(F)(F)C(F)(F)F)nn3C)c2)ccc1Cl)C1(C#N)CC1 [Ic-208] | 4.33 |  |  | 
Cn1nc(C(F)(F)C(F)(F)F)c(C(F)(F)F)c1-n1cc(-c2ccc(Cl)c(C(=O)Nc3ccc(F)cc3)c2)cn1 [Ic-209] | 4.53 |  |  | 
Cn1nc(C(F)(F)C(F)(F)F)c(C(F)(F)F)c1-n1cc(-c2ccc(Cl)c(C(=O)NC3(C4CCC4)CC3)c2)cn1 [Ic-210] | 4.77 |  |  | 
Cn1nc(C(F)(F)C(F)(F)F)c(C(F)(F)F)c1-n1cnc(-c2ccc(Cl)c(C(=O)NC3CC3)c2)n1 [Ie-2] |  |  |  | logP [2, 7]: 3.72
Cn1nc(C(F)(F)C(F)(F)F)c(C(F)(F)F)c1-n1cnc(-c2cccc(C(=O)NC3CC3)c2)n1 [Ie-3] |  |  |  | logP [2, 7]: 3.50
Cn1nc(C(F)(F)C(F)(F)F)c(C(F)(F)F)c1-n1cnc(-c2cccc(C(=O)NCc3cccs3)c2)n1 [Ie-4] |  | 100% |  | logP [2, 7]: 4.05
Cn1nc(C(F)(F)C(F)(F)F)c(C(F)(F)F)c1-n1cnc(-c2cccc(C(=O)Nc3ccc(Cl)nc3)c2)n1 [Ie-5] |  | 100% |  | logP [2, 7]: 4.24
Cn1nc(C(F)(F)C(F)(F)F)c(C(F)(F)F)c1-n1cnc(-c2cccc(C(=O)NC3(C(N)=S)CC3)c2)n1 [Ie-6] |  |  |  | logP [2, 7]: 3.29
Cn1nc(C(F)(F)C(F)(F)F)c(C(F)(F)F)c1-n1cnc(-c2cccc(C(=O)NC3(C#N)CC3)c2)n1 [Ie-7] |  |  |  | logP [2, 7]: 3.46

Reference: US9487489B2, “Halogen-substituted pyrazole derivatives as pest-control agents” (BAYER CROPSCIENCE AKTIENGESELLSCHAFT, priority 2013, dated 2016)
